Source: article PMC11649115, “In vitro safety evaluation of dopamine D3R antagonist, R-VK4-116, as a potential medication for the treatment of opioid use disorder” (PLOS ONE, 2024)

How the values were obtained:
[1] = target: T1, CYP2C8 (Homo sapiens, UniProt P10632); assay: in vitro; conditions: microsomes
T1 sequence (P10632 1-490): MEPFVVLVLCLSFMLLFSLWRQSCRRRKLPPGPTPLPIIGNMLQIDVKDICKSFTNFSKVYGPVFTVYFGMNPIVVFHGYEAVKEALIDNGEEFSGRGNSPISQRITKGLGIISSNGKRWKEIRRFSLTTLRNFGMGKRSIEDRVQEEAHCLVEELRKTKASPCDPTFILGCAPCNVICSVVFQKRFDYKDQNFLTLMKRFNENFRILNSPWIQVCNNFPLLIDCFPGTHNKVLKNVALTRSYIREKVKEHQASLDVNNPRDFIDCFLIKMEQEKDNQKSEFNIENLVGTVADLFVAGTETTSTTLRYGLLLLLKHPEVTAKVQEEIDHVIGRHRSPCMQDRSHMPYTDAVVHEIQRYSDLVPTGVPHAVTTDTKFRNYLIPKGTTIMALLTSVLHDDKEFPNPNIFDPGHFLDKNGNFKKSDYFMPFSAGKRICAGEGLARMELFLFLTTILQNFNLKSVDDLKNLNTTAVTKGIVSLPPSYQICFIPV

[2] = target: CYP2C9 (Homo sapiens, UniProt P11712); assay: CYP inhibition in human liver microsomes; conditions: human, human liver microsomes, probe diclofenac
Chain of CYP2C9 (P11712 whole entry): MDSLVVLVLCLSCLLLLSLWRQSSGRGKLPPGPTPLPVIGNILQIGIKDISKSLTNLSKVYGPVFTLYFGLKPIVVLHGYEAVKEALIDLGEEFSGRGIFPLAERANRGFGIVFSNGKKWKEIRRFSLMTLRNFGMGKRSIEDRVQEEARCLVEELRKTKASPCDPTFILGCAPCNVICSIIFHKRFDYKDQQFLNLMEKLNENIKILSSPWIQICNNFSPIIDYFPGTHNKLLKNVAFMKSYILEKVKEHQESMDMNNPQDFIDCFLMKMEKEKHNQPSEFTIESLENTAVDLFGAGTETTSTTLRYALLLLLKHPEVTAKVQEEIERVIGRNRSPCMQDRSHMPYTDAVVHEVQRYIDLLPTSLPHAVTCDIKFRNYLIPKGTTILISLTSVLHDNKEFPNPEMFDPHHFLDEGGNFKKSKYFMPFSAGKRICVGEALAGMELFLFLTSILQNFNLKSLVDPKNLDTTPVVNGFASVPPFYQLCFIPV

[3] = target: CYP2D6 (Homo sapiens, UniProt P10635); assay: CYP inhibition in human liver microsomes; conditions: human, human liver microsomes, probe bufuralol
Chain of CYP2D6 (P10635 whole entry): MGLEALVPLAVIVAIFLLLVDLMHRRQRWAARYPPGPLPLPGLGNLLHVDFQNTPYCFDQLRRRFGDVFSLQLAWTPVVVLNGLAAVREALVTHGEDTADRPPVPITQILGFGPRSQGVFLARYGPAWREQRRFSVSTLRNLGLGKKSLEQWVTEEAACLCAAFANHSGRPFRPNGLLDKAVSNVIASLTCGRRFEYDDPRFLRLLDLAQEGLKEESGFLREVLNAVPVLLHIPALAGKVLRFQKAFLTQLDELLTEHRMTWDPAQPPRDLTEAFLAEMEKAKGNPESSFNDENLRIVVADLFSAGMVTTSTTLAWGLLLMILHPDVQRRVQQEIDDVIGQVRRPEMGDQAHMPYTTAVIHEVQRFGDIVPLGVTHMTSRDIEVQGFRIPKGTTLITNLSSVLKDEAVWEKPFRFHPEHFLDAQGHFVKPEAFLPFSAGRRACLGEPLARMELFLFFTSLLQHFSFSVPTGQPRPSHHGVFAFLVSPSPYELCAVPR

[4] = target: T2, CYP1A2 (Homo sapiens, UniProt P05177); assay: CYP inhibition in human liver microsomes; conditions: human, human liver microsomes, probe phenacetin
T2 sequence (P05177 1-516): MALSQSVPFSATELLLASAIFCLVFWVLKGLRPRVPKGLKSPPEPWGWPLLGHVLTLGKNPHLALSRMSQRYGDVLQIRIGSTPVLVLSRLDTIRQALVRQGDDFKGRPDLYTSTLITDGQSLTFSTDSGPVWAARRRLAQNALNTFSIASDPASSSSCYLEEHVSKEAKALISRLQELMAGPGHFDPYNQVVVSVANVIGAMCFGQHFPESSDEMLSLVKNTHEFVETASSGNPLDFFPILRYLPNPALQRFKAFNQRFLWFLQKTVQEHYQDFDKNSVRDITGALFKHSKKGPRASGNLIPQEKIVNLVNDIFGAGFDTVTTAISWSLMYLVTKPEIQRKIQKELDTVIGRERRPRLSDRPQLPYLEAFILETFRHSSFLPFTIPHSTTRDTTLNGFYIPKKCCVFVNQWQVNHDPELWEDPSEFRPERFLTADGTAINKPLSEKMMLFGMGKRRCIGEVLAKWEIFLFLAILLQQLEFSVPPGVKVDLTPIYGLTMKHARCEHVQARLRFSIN

[5] = target: T3, CYP2B6 (Homo sapiens, UniProt P20813); assay: CYP inhibition in human liver microsomes; conditions: human, human liver microsomes, probe bupropion
T3 sequence (P20813 1-491): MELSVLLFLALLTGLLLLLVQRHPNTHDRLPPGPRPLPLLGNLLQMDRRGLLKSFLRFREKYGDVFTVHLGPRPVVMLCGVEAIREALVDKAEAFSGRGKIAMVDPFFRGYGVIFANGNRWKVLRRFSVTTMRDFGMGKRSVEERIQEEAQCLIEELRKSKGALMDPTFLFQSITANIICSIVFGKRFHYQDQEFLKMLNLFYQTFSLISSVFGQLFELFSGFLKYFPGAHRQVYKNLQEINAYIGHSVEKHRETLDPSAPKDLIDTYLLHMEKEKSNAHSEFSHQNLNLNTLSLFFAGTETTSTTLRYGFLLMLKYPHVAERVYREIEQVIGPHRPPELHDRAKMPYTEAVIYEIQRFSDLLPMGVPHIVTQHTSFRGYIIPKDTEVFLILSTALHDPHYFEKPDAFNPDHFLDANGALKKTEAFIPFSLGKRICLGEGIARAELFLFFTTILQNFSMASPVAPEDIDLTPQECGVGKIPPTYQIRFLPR

[6] = target: CYP3A4 (Homo sapiens, UniProt P08684); assay: in vitro; conditions: microsomes
Chain of CYP3A4 (P08684 2-503): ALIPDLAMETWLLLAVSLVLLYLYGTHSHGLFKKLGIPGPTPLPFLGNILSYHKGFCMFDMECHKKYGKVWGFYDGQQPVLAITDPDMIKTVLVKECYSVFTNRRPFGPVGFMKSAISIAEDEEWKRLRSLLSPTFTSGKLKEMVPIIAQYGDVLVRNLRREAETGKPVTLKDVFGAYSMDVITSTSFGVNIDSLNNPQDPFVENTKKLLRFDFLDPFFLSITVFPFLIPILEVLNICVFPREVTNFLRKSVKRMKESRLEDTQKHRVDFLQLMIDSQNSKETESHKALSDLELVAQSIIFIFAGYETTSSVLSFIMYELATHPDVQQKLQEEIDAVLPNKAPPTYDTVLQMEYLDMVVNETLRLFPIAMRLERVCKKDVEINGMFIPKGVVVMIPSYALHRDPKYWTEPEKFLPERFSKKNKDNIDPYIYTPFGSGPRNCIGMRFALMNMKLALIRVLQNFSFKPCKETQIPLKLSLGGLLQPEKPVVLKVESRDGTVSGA

[7] = target: CYP2C19 (Homo sapiens, UniProt P33261); assay: CYP inhibition in human liver microsomes; conditions: human, human liver microsomes, probe mephenytoin
Chain of CYP2C19 (P33261 whole entry): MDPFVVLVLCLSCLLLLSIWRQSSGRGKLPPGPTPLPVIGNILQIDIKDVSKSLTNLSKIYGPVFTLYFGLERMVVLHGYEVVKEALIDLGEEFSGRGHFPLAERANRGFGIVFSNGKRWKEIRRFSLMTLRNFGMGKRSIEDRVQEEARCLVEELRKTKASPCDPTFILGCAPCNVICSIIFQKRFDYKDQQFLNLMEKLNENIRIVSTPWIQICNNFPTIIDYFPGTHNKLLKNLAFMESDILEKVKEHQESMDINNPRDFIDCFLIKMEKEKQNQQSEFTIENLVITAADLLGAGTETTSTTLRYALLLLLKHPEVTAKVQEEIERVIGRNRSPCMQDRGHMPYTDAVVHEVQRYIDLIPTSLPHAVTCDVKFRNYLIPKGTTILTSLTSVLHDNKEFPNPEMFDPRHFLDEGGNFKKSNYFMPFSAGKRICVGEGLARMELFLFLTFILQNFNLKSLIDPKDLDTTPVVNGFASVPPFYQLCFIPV

[8] = system: cardiovascular effects; conditions: dogs ref 4, 9; cited from earlier work
[9] = target: T1, CYP2C8; assay: CYP inhibition in human liver microsomes; conditions: human, human liver microsomes, probe paclitaxel
[10] = target: T2, CYP1A2; assay: in vitro; conditions: microsomes
[11] = target: T4, MATE1 (Homo sapiens, UniProt Q96FL8); assay: Transporter mediated assay (substrate/inhibitor), MDCK-II cells; format: in vitro ADME; conditions: human, polarized monolayer of MDCK-II cells expressing MATE1; MATE1, No BSA, 100 μM
T4 construct: expressed in transfected cells; host or cells: MDCK-II cells
T4 sequence (Q96FL8 1-570): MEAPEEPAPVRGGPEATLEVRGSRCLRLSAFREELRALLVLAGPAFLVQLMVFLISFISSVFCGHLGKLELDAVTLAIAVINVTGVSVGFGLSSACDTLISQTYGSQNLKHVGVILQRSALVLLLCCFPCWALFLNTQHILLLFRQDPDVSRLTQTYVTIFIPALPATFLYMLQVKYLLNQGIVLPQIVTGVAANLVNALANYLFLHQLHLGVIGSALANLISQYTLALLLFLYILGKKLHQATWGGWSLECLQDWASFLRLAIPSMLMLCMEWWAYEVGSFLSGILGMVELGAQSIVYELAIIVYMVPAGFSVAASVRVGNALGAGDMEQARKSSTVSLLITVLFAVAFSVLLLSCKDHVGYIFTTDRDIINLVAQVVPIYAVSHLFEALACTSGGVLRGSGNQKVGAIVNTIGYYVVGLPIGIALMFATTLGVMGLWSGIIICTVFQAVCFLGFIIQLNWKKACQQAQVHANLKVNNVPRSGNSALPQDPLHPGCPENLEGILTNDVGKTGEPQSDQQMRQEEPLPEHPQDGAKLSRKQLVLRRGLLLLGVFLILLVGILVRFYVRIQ

[12] = target: T5, MATE2-K (Homo sapiens, UniProt Q86VL8); assay: as above; format: in vitro ADME; conditions: human, polarized monolayer of MDCK-II cells expressing MATE2-K, No BSA, 100 μM
T5 construct: expressed in transfected cells; host or cells: MDCK-II cells
T5 sequence (Q86VL8 1-566 isoform Q86VL8-3): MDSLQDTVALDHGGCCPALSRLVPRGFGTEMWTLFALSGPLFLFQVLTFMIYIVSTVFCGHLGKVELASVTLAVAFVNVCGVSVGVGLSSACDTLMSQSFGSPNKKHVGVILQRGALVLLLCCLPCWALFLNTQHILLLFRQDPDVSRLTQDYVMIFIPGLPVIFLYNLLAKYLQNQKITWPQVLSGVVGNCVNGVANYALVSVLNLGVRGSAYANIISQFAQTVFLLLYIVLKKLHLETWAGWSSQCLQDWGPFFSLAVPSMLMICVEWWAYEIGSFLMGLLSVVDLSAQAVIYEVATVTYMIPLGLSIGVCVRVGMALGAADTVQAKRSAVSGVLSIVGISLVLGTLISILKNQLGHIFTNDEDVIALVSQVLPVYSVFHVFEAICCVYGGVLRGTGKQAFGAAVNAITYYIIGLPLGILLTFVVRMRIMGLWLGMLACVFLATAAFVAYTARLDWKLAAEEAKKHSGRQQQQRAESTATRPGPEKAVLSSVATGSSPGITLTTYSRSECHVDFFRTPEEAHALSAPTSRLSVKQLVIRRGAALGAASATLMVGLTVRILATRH

[13] = CYP activity (% of Control) 3A4 (Midazolam)
[14] = CYP activity (% of Control) 3A4 (Testosterone)

activity at 20 min, 10 µM [1] | activity at 20 min, 10 µM [2] | activity at 20 min, 10 µM [3] | activity at 20 min, 10 µM [4] | activity at 20 min, 10 µM [5] | activity at 20 min, 10 µM [6, 13] | activity at 20 min, 10 µM [6, 14] | activity at 20 min, 10 µM [7] | activity at 20 min, 10 µM [9] | activity at 20 min, 10 µM [10] | inhibition at 100 µM [11] | inhibition at 100 µM [12] | SMILES | cardiovascular effect in combination with cocaine [8]
10.3 ± 0.7% | 75.4 ± 0.9% | 88.4 ± 1.8% | 91 ± 1.8% | 90.5 ± 1.3% | 93.8 ± 3.9% | 93.1 ± 2% | 105 ± 2% | – | – | – | – | CC(C)(O)c1ccccc1CC[C@@H](SCC1(CC(=O)O)CC1)c1cccc(/C=C/c2ccc3ccc(Cl)cc3n2)c1 [Montelukast] | –
– | – | – | – | – | – | – | – | – | – | – | – | Cc1ncoc1-c1nnc(SCCCN2C[C@@H]3C[C@]3(c3ccc(C(F)(F)F)cc3F)C2)n1C [GSK598,809] | hypertension
– | 96.3 ± 1.4% | 94.7 ± 1.1% | – | 97.3 ± 2.9% | 97.2 ± 4.7% | 95.1 ± 5.6% | 94.3 ± 8.1% | 89.9 ± 1.4% | 49 ± 5.3% | – | – | Cc1nc2c([nH]1)c(=O)n(C)c(=O)n2Cc1ccco1 [Furafylline] | –
– | – | – | – | – | – | – | – | – | – | 99.3 ± 0.22% | 95.9 ± 0.59% | CN/C(=N/CCSCc1nc[nH]c1C)NC#N [cimetidine, reference compound] | –
